Test results from patent US10780094B2, “Use of carbonic anhydrase inhibitors for treatment of neurological and psychiatric disorders” (New York University, priority 2016, dated 2020).

Experiments:
TgSwDI mice [1] = assay type: in vivo; conditions: given with diet
Procedure: The grip strength test was used to measure neuromuscular function and specifically assesses maximal muscle/grip force of the forelimbs (only) or both the fore and hind limbs combined. Motor performance was assessed by the horizontal grasping force applied by the rodent to a specialized stainless steel grid that is connected to a sensitive, electronic force sensor (Bioseb In Vivo Research Instruments). […] With the base of the tail held gently but firmly between thumb and forefinger, the mouse was pulled gently back away from the grid, ensuring that the torso remains horizontal, until the animal loses grip of the grid. For combined fore and hindlimb measurement, the procedure was identical to the forelimb-only procedure except that mouse was lowered to allow both fore and hind paws to attach to the grid before any measurements were taken. […]
To ensure maximal reliability, each measurement of interest (e.g., forelimb or combined) was repeated consecutively for each mouse to obtain 5-6 replicates. […] A truncated mean (mean of replicates after the smallest and largest readings were removed) was calculated for each subject. […]
Mice in each treatment group (WT, Tg, Tg+MTZ, Tg+ATZ) were counted before the beginning of the treatment, at month 2, and at sacrifice (month 16). […]

TgSwDI mice [2] = assay: Brain immunostaining and Thioflavin S staining in a model of vascular and parenchymal amyloidosis; assay type: in vivo, mouse; conditions: for Aβ and GFAP staining, dentate gyrus (hippocampus) / GFAP and Aβ staining and their colocalization, cortex / co-localization of Aβ staining with glial cells, dentate gyrus / gliosis and amyloidosis, thalamic region: 16 month-old mice treated for 8 months; for amyloid deposits in the cortex and thalamic region (Thioflavin S) / hippocampal deposition of Amyloid beta (Thioflavin S) / amyloid load in the brain (Thioflavin S): 16 months old, diet 8 months; for amyloid load in the brain (Thioflavin S): 15-20 mg/kg/day
Procedure: The animals were sacrificed by trans-cardiac perfusion (medium flow pump, Fisher Scientific 13-876-2, 10 ml/min flow rate) with PBS for 2 minutes followed by 4% paraphormaldehyde for 5 minutes. Brains were then removed from the skull and postfixed in 4% paraphormaldehyde for 2 h at 4° C. […] Brains were then washed in PBS, assembled in a plastic mold with Tissue-Tek O.C.T. compound (Fisher Scientific), and frozen with a mixture of liquid nitrogen and isopenthanol. Serial cryostat sections of 8 μm thickness were collected on positively charged microscope slides (Fisher Scientific) and stored at −80° C. until further immunohistochemical analysis.
For immunohistochemical staining, slices were warmed to RT for 5′ prior to use, rinsed in PBS and blocked with Mouse on Mouse (MOM) blocking reagent (2 drops in 2.5 ml of PBS, Vector Laboratories, Burlingame, Calif.) for 20 minutes. Incubation with the rabbit monoclonal antibody against active caspase-3 (Cell Signaling Technology) was performed overnight at 4° C. in PBS containing 0.1% triton X-100 and 5 mg/ml BSA. The day after, the sections were washed three times with PBS and incubated in Alexa Fluor 488- or 633-conjugated anti-rabbit IgG (Life Technologies; 1:200 in PBST with 5 mg/ml BSA; 1 h at RT), followed by primary anti-Aβ 6E10 (1:200 in PBS+MOM for 2 hours at RT), and by secondary Alexa Fluor 568 anti-mouse IgG. Finally, the slices were washed and the DNA counterstained with TO-PRO (Life Technologies) 1:1000 for 10 min, or with NeuN green neuronal staining (1:100 in PBS for 1 hour, Millipore, Temecula, Calif.). For staining of active microglial cells, tissue sections were incubated with anti IBA1 goat antibody (Abcam, Cambridge, Mass.) 1:200 in PBS containing 0.1% Triton and 5 mg/ml BSA for 1 hour, followed by Alexa Fluor 488 anti-goat IgG (1 hour). For astrocytes, brain slices were stained with GFAP antibody (Fisher Scientific 1:200).
Total fibrillar Aβ burden (parenchymal and vascular) and CAA burden (Aβ burden in the vasculature) were evaluated separately in sections stained with Thioflavin-S, using methods described previously (Scholtzova et al., J Neurosci 2009, 29: 1846-1854).
After washing, slides were mounted with an aqueous mounting medium (Vector Laboratories). Images were acquired in a Zeiss LSM 510 confocal microscope using 40× or 100× oil lens and processed using Image J and Adobe Photoshop. Images were acquired maintaining constant exposure for all samples across single experiments. For quantifications, stained brain slices corresponding to the injection site area of 3 or more animals were quantified with Image J. The total area of NeuN, caspase 3, Aβ and IBA1 positive cells was quantified and compared between different treatments.

[3] = drugs in diet from 5-6 months of age, sacrificed at 9 months

Structure (SMILES)	signs of toxicity, weight loss or death (TgSwDI mice [1])	Aβ and GFAP staining, dentate gyrus (hippocampus) (TgSwDI mice [2])	GFAP and Aβ staining and their colocalization, cortex (TgSwDI mice [2])	co-localization of Aβ staining with glial cells, dentate gyrus (TgSwDI mice [2])	gliosis and amyloidosis, thalamic region (TgSwDI mice [2])	amyloid deposits in the cortex and thalamic region (Thioflavin S) (TgSwDI mice [2])	hippocampal deposition of Amyloid beta (Thioflavin S) (TgSwDI mice [2])	amyloid load in the brain (Thioflavin S) (TgSwDI mice [2])	increase in caspase 3 activation induced by Aβ, hippocampus (TgSwDI mice [2]; [3])	Aβ deposition, hippocampus (TgSwDI mice [2]; [3])
CC(=O)Nc1nnc(S(N)(=O)=O)s1 [ATZ, acetazolamide]	without showing signs of toxicity, weight loss or increased death of the animals	both Aβ and GFAP were reduced	significant reduction	not co-localized within glial cells	decreased gliosis (green) and amyloidosis (red)	reduced deposition	decrease	reduced	inhibited	
CC(=O)/N=c1/sc(S(N)(=O)=O)nn1C [MTZ, methazolamide]	without showing signs of toxicity, weight loss or increased death of the animals	both Aβ and GFAP were reduced	significant reduction	not co-localized within glial cells	decreased gliosis (green) and amyloidosis (red)	reduced deposition	decrease	reduced	inhibited	reduction in Aβ deposition
